Data as given in patent publication US6812251B2, “Taurine compounds” (priority 2001, dated 2004).

Columns and labels:
[1] = tested on: PA1 human ovarian tumor cells; experiment: Tumor cell growth inhibition, PA1 cells (cell counting); assay type: cell-based; conditions: PA-1, 5-100 μM, 3 d (72 h) exposure, electronic cell counting, mean ± SE, read-out: IC50 (concentration required to inhibit cell number by 50%)
[2] = Growth inhibition of a panel of cell lines by taurolidine; assay type: cell-based; conditions: range over all cell lines evaluated; read-out: IC50s, growth inhibition
[3] = tested on: DU-145 human prostate tumor cells; experiment: Flow cytometry (propidium iodide) apoptosis, sub-G0/G1 peak; assay type: cell-based; conditions: DU-145 cells, 50 μM, 24 h
Stability in solution = assay type: physicochemical
Text: The prolonged stability is an advantage over taurolidine.

O=S1(=O)CCN(CN2CCS(=O)(=O)NC2)CN1 [Taurolidine, Bis-(1,1-dioxoperhydro-1,2,4-thiadiazinyl-4)methane]
IC50 [1]: 11.4 ± 1.8 µM
IC50 [2]: 9.6 to 45 µM
% apoptosis (sub-G0/G1 peak area) [3]: 12.27%
stability in solution (Stability in solution): very unstable in solution and spontaneously decomposes
